According to patent publication US9090583B2, “Benzopyrone estrogen receptor regulator” (BEIJING SHENOGEN PHARMA GROUP LTD., priority 2010, dated 2015):
Where two headings read alike, the source gives them in different places.

Assays:
[1] = test system: MDA-MB-231 cells; test: CellTiter-Glo Luminescent Cell Viability Assay on ER-negative breast cancer MDA-MB-231 cells; type: cell-based; conditions: average ± standard deviation when tested more than 3 times, read-out: Inhibition of the viability of breast cancer cells, IC50
Experimental: A: In Vitro CellTiter-Glo® Luminescent Cell Viability Assay on ER-Negative Breast Cancer MDA-MB-231 Cells:
MDA-MB-231 cells were maintained at 37° C., under 5% CO2 atmosphere in DMEM containing 10% fetal calf serum. The cells were seeded on 96-well plate at a density of 6×10^3 cells per well. MDA-MB-231 cells were treated with a test compound dissolved in DMSO at the concentrations of zero, 0.3 μM, 0.5 μM, 1 μM, 2 μM, 3 μM, 5 μM, 10 μM, 20 μM, 30 μM, 50 μM and 100 μM for 72 hours. Treated cells were examined by CellTiter-Glo® Luminescent Cell Viability Assay Kit (Promega), and luminescence values were recorded with Envision.

[2] = test system: MCF7 cells; test: CellTiter-Glo Luminescent Cell Viability Assay on ER-positive breast cancer MCF-7 cells; type: cell-based, human; conditions: average ± standard deviation when tested more than 3 times, read-out: Inhibition of the viability of breast cancer cells, IC50
Text: B: In Vitro CellTiter-Glo® Luminescent Cell Viability Assay on ER-Positive Breast Cancer MCF-7 Cells:
MCF7 cells are breast cancer cell lines that highly express ER-66, ER-46 and ER-36. (Relevance of breast cancer cell lines as models for breast tumours: an update. Marc Lacroix, Guy Leclercq, Breast Cancer Research and Treatment (2004) 83, 249-289; Wang et al., Proc. Natl. Acad. Sci. U.S.A. 103:9063-9068 (2006)). MCF7 cells were obtained from ATCC and maintained in Dulbecco's Modified Eagles Medium (DMEM) and 10% fetal calf serum at 37° C., under 5% CO2 atmosphere. The cells were seeded on 96-well plate at a density of 6×10^3 cells per well. MCF7 cells were treated with a test compound dissolved in DMSO at the concentrations of zero, 0.3 μM, 0.5 μM, 1 μM, 2 μM, 3 μM, 5 μM, 10 μM, 20 μM, 30 μM, 50 μM and 100 μM for 72 hours. Treated cells were examined by CellTiter-Glo® Luminescent Cell Viability Assay Kit (Promega), and luminescence values were recorded with Envision.

Row | Compound | IC50 ([1]; 72 hours) [µM] | IC50 ([2]; 72 hours) [µM] | IC50 ([1]; Homo sapiens, MDA-MB-231, 72 h) [µM] | IC50 ([2]; Homo sapiens, MCF7, 72 h) [µM]
1 | 2-(benzo[b]thiazol-2-yl)-5,7-dihydroxy-3-methoxy-6,8-di(3-3-methyl-2-buten-1-yl)-4H-benzopyran-4-one [Compound 49] | 17.9 | 17.8 | – | –
2 | 2-(benzo[d][1,3]dioxo-5-yl)-5,7-dihydroxy-3-methoxy-6,8-di(3-methyl-2-buten-1-yl)-4H-benzopyran-4-one [Compound 21] | 13.8 ± 2.1 | 47.2 ± 22.5 | – | –
3 | 2-(piperazin-2-yl)-5,7-dihydroxy-3-methoxy-6,8-di(3-methyl-2-buten-1-yl)-4H-benzopyran-4-one [Compound 30] | 77.2 | > 100 | – | –
4 | COc1ccc(-c2oc3c(CC=C(C)C)c(O)c(CC=C(C)C)c(O)c3c(=O)c2OC)cc1F [Compound 1, 2-(3-fluoro-4-methoxyphenyl)-5,7-dihydroxy-3-methoxy-6,8-di(3-methyl-2-buten-1-yl)-4H-benzopyran-4-one] | – | – | 14.2 ± 5.18 | 16
5 | COc1c(-c2cccc(F)c2)oc2c(CC=C(C)C)c(O)c(CC=C(C)C)c(O)c2c1=O [Compound 3, 2-(3-fluorophenyl)-5,7-dihydroxy-3-methoxy-6,8-di(3-methyl-2-buten-1-yl)-4H-benzopyran-4-one] | – | – | 12.6 ± 2.4 | 10.4 ± 0.22
6 | COc1cc(-c2oc3c(CC=C(C)C)c(O)c(CC=C(C)C)c(O)c3c(=O)c2OC)ccc1F [Compound 9, 2-(4-fluoro-3-methoxyphenyl)-5,7-dihydroxy-3-methoxy-6,8-di(3-methyl-2-butylene-1-yl)-4H-benzopyran-4-one] | > 100 | > 100 | – | –
7 | COc1c(-c2ccc(Cl)c(C)c2)oc2c(CC=C(C)C)c(O)c(CC=C(C)C)c(O)c2c1=O [Compound 11, 2-(4-chloro-3-methylphenyl)-5,7-dihydroxy-3-methoxy-6,8-di(3-methyl-2-buten-1-yl)-4H-benzopyran-4-one] | – | – | 13.8 | 15.5
8 | COc1c(-c2ccc(Cl)c(Cl)c2)oc2c(CC=C(C)C)c(O)c(CC=C(C)C)c(O)c2c1=O [Compound 12, 2-(3,4-dichlorophenyl)-5,7-dihydroxy-3-methoxy-6,8-di(3-methyl-2-butylene-1-yl)-4H-benzopyran-4-one] | 16.1 | > 100 | – | –
9 | COc1c(-c2ccc(Cl)c(C(F)(F)F)c2)oc2c(CC=C(C)C)c(O)c(CC=C(C)C)c(O)c2c1=O [Compound 13, 2-(4-chloro-3-trifluoromethylphenyl)-5,7-dihydroxy-3-methoxy-6,8-di(3-methyl-2-butylene-1-yl)-4H-benzopyran-4-one] | 22.7 | 35.4 | – | –
10 | COc1c(-c2ccc(Cl)cc2F)oc2c(CC=C(C)C)c(O)c(CC=C(C)C)c(O)c2c1=O [Compound 14, 2-(2-fluoro-4-chlorophenyl)-5,7-dihydroxy-3-methoxy-6,8-di(3-methyl-2-butylene-1-yl)-4H-benzopyran-4-one] | 23.6 | 13.5 | – | –
11 | COc1c(-c2ccc(C)cc2)oc2c(CC=C(C)C)c(O)c(CC=C(C)C)c(O)c2c1=O [Compound 16, 2-(4-methylphenyl)-5,7-dihydroxy-3-methoxy-6,8-di(3-methyl-2-butylene-1-yl)-4H-benzopyran-4-one] | 16.3 | > 100 | – | –
12 | COc1c(-c2ccc(C(C)C)cc2)oc2c(CC=C(C)C)c(O)c(CC=C(C)C)c(O)c2c1=O [Compound 17, 2-(4-isopropylphenyl)-5,7-dihydroxy-3-methoxy-6,8-di(3-methyl-2-butylene-1-yl)-4H-benzopyran-4-one] | 25.6 | 40.1 | – | –
13 | COc1c(-c2ccc3ccccc3c2)oc2c(CC=C(C)C)c(O)c(CC=C(C)C)c(O)c2c1=O [Compound 19, 2-(naphthalen-2-yl)-5,7-dihydroxy-3-methoxy-6,8-di(3-methyl-2-butylene-1-yl)-4H-benzopyran-4-one] | 13.7 ± 1.99 | 27.4 | – | –
14 | COc1c(-c2ccc3c(c2)OCCO3)oc2c(CC=C(C)C)c(O)c(CC=C(C)C)c(O)c2c1=O [Compound 20, 2-(2,3-dihydrobenzo[b][1,4]dioxan-6-yl)-5,7-dihydroxy-3-methoxy-6,8-di(3-methyl-2-buten-1-yl)-4H-benzopyran-4-one] | 12.6 | > 100 | – | –
15 | CCOc1ccc(-c2oc3c(CC=C(C)C)c(O)c(CC=C(C)C)c(O)c3c(=O)c2OC)cc1F [Compound 23, 2-(3-fluoro-4-ethoxylphenyl)-5,7-dihydroxy-3-methoxy-6,8-di(3-methyl-2-buten-1-yl)-4H-benzopyran-4-one] | – | – | 28.8 | 20.1
16 | CCOc1ccc(-c2oc3c(CC=C(C)C)c(O)c(CC=C(C)C)c(O)c3c(=O)c2OC)cc1 [Compound 24, 2-(4-ethoxyphenyl)-5,7-dihydroxy-3-methoxy-6,8-di(3-methyl-2-buten-1-yl)-4H-benzopyran-4-one] | – | – | > 100 | > 100
17 | COc1c(-c2cccnc2)oc2c(CC=C(C)C)c(O)c(CC=C(C)C)c(O)c2c1=O [Compound 28, 2-(pyridin-3-yl)-5,7-dihydroxy-3-methoxy-6,8-di(3-methyl-2-buten-1-yl)-4H-benzopyran-4-one] | – | – | 18.1 ± 4.3 | 13.2
18 | COc1c(-c2ccccn2)oc2c(CC=C(C)C)c(O)c(CC=C(C)C)c(O)c2c1=O [Compound 29, 2-(pyridin-2-yl)-5,7-dihydroxy-3-methoxy-6,8-di(3-methyl-2-buten-1-yl)-4H-benzopyran-4-one] | – | – | > 100 | 12
19 | COc1c(-c2ccncc2)oc2c(CC=C(C)C)c(O)c(CC=C(C)C)c(O)c2c1=O [Compound 31, 2-(pyridin-4-yl)-5,7-dihydroxy-3-methoxy-6,8-di(3-methyl-2-buten-1-yl)-4H-benzopyran-4-one] | – | – | 25.1 | > 100
20 | COc1c(-c2cncnc2)oc2c(CC=C(C)C)c(O)c(CC=C(C)C)c(O)c2c1=O [Compound 32, 2-(pyrimidin-5-yl)-5,7-dihydroxy-3-methoxy-6,8-di(3-methyl-2-buten-1-yl)-4H-benzopyran-4-one] | – | – | 20 | 34.4
21 | COc1c(-c2ncccn2)oc2c(CC=C(C)C)c(O)c(CC=C(C)C)c(O)c2c1=O [Compound 33, 2-(pyrimidin-2-yl)-5,7-dihydroxy-3-methoxy-6,8-di(3-methyl-2-buten-1-yl)-4H-benzopyran-4-one] | – | – | 22.3 | > 100
22 | COc1c(C2CC2)oc2c(CC=C(C)C)c(O)c(CC=C(C)C)c(O)c2c1=O [Compound 34, 2-cyclopropyl-5,7-dihydroxy-3-methoxy-6,8-di(3-methyl-2-buten-1-yl)-4H-benzopyran-4-one] | – | – | 25.6 | > 100
23 | COc1c(C2CCC2)oc2c(CC=C(C)C)c(O)c(CC=C(C)C)c(O)c2c1=O [Compound 35, 2-cyclobutyl-5,7-dihydroxy-3-methoxy-6,8-di(3-methyl-2-buten-1-yl)-4H-benzopyran-4-one] | – | – | > 100 | 88.1
24 | COc1c(C2CCCC2)oc2c(CC=C(C)C)c(O)c(CC=C(C)C)c(O)c2c1=O [Compound 36, 2-cyclopentyl-5,7-dihydroxy-3-methoxy-6,8-di(3-methyl-2-buten-1-yl)-4H-benzopyran-4-one] | – | – | > 100 | > 100
25 | COc1c(C2CCOC2)oc2c(CC=C(C)C)c(O)c(CC=C(C)C)c(O)c2c1=O (stereo not drawn) [Compound 38, 2-(terthydrofuran-3-yl)-5,7-dihydroxy-3-methoxy-6,8-di(3-methyl-2-buten-1-yl)-4H-benzopyran-4-one] | > 100 | 22.9 | – | –
26 | COc1c(-c2cccs2)oc2c(CC=C(C)C)c(O)c(CC=C(C)C)c(O)c2c1=O [Compound 39, 2-(thiophen-2-yl)-5,7-dihydroxy-3-methoxy-6,8-di(3-methyl-2-buten-1-yl)-4H-benzopyran-4-one] | – | – | > 100 | 65.8
27 | COc1c(-c2ccsc2)oc2c(CC=C(C)C)c(O)c(CC=C(C)C)c(O)c2c1=O [Compound 40, 2-(thiophen-3-yl)-5,7-dihydroxy-3-methoxy-6,8-di(3-methyl-2-buten-1-yl)-4H-benzopyran-4-one] | – | – | 24 | 23.5
28 | COc1c(-c2ccco2)oc2c(CC=C(C)C)c(O)c(CC=C(C)C)c(O)c2c1=O [Compound 41, 2-(furan-2-yl)-5,7-dihydroxy-3-methoxy-6,8-di(3-methyl-2-buten-1-yl)-4H-benzopyran-4-one] | – | – | > 100 | 22.2
29 | CC(C)=CCc1c(O)c(CC=C(C)C)c2oc(-c3ccc(F)cc3)c(O)c(=O)c2c1O [Compound 97, 2-(4-fluorophenyl)-3,5,7-trihydroxy-6,8-di(3-methyl-2-buten-1-yl)-4H-benzopyran-4-one] | – | – | 21.4 | –
